Laboratory results reported in patent US6518062B1, “Enzyme combinations for destroying proliferative cells” (priority 1996, dated 2003).
Several values for one entry are separate records, joined by “and”; a condition that tells them apart may be missing. Equal entries are not always repeated. Marks after values point to notes of the source that are not given here.

Experiments:
[1] = target: HSV1-TK and GMPK from S. cerevisiae (Human herpesvirus 1, UniProt P0DTH5); assay: TK-GMPK coupling, % of products formed; assay type: biochemical, herpes simplex virus type 1; S. cerevisiae; conditions: for % of the products formed, NDP / % of the products formed, NMP: substrate 100 μM
Method: (§1) In a preferred coupling mode, the incubation is carried out in 100 μl of 50 mM Tris/HCl buffer pH 7.8, containing 1 mg/ml of BSA (bovine serum albumin), 5 mM ATP, 4 mM MgCl2, 12 mM KCl, 2 mM DTT, 600 μM EDTA, 100 μM [8-3H]-GCV (40 nCi/nmol) or 100 μM [2-3H]-ACV 40 nCi/nmol and various quantities of TK, GuK and NDPK (cf Table 2).

[2] = target: T1, HSV1-TK, GMPK and baker's yeast NDPK (Human herpesvirus 1, UniProt P0DTH5); assay: TK-GMPK-NDPK coupling with baker's yeast NDPK; assay type: biochemical, herpes simplex virus type 1; S. cerevisiae; conditions: substrate 100 μM
T1 construct: purchased SIGMA

[3] = target: T2, HSV1-TK, GMPK and human (erythrocyte) NDPK (Human herpesvirus 1, UniProt P0DTH5); assay: TK-GMPK-NDPK coupling with human erythrocyte NDPK; assay type: biochemical; conditions: substrate 100 μM
T2 construct: purchased SIGMA; host or cells: human erythrocytes (NDPK)
Method: as §1

[4] = target: T3, HSV1-TK, GMPK and bovine (liver) NDPK (Human herpesvirus 1, UniProt P0DTH5); assay: TK-GMPK-NDPK coupling with bovine liver NDPK; assay type: biochemical; conditions: substrate 100 μM
T3 construct: purchased SIGMA; host or cells: bovine liver (NDPK)
Method: as §1

[5] = target: T4, HSV1-TK/S. cerevisiae GMPK fusion protein (UniProt P0DTH5+P15454, V34A); assay: Phosphorylation to diphosphate by TK-GMPK fusion protein; assay type: biochemical, herpes simplex virus type 1; S. cerevisiae
T4 construct: made in house; host or cells: E. coli BL21 DE3 pXL3098 (pET11a)
T4 sequence (P0DTH5+P15454 with tags, fused parts or gaps P15454:V34A): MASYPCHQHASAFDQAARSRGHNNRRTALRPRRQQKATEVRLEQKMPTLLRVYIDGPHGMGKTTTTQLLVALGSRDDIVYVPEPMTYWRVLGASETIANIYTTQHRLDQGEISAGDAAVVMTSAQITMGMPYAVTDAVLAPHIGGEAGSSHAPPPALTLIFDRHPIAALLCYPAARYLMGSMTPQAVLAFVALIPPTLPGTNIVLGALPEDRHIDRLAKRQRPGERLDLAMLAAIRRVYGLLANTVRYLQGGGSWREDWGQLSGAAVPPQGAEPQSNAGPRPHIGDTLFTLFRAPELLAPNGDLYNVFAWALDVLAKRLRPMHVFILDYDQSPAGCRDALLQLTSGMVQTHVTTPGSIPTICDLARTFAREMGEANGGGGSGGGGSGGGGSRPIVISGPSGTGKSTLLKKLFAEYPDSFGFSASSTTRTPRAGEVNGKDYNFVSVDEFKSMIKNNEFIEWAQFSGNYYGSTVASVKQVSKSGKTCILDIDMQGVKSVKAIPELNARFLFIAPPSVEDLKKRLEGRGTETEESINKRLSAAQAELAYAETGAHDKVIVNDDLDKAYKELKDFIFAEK
Method: (§2) The reaction is stopped by heating for 3 min at 80° C.; after centrifugation, 100 μl of incubation product are analyzed in the following system: […]

Mixture 2-865:H12/GMPK = assay: Phosphorylation to diphosphate by mixture of 2-865:H12 and GMPK; assay type: biochemical
Method: The capacity of the TK-GMPK fusion protein to convert GCV or ACV to GCVDP or ACVDP compared with a synthetic mixture of TK and GMPK is determined in the following manner:
as §2

[6] = target: Mixture wild type TK/GMPK (Human herpesvirus 1, UniProt P0DTH5); assay type: biochemical, herpes simplex virus type 1; S. cerevisiae; conditions: Mixture wild type/GMPK 1.66/0.33 μg; GCV 100 μM
Method: as §2

glioma = conditions: rats having a glioma, HSV1-TK gene expressed, 150 mg/kg doses injected; cited from earlier work
mice = conditions: mouse, in vivo, 150 mg/kg; cited from earlier work
[7] = target: T5, Yeast guanylate kinase (S. cerevisiae) (Saccharomyces cerevisiae, UniProt P15454); assay: Kinetic constants of yeast guanylate kinase for GCVMP and ACVMP; assay type: biochemical; conditions: for Km / Vmax: yeast GMPK, 30° C., pH 7.8, 4 mM ATP
T5 sequence (P15454 1-187): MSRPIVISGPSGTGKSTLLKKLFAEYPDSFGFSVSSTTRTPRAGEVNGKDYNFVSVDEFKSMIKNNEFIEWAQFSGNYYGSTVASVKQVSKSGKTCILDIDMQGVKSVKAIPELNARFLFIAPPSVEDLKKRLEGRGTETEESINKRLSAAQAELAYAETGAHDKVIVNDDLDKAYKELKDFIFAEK
Method: The kinetic constants for the yeast GMP kinase purified as described in Example 3 are determined under the following enzymatic assay conditions: The yeast GMP kinase is incubated for 10 min at 30° C. in 100 μl of 50 mM Tris/HCl buffer pH 7.8 containing 4 mM ATP, 10 mM MgCl2, 100 mM KCl, 1 mg/ml BSA (bovine serum albumin) and 5-100 μ[…] (40 nCi/nmol) or 200-3200 μ[…] (40 nCi/nmol). he reaction is stopped by heating the reaction mixture for 3 min at 80° C., 50 μl of 10 mM potassium phosphate buffer pH 3.5 are added, and after centrifugation for 2 min at 10,000×g, 100 μl of supernatant are analysed by high performance liquid chromatography (HPLC) in the following system: for the calculation of the kinetic constants, the quantity of yeast GMP kinase introduced into the enzymatic reaction is adjusted so as to convert at most 10% of the substrate initially introduced. The Michaelis curves are adjusted to the experimental points with the aid of the Grafit software (Sigma). […] For substrates entering into competition, the Vmax/Km constant determines the specificity of the enzyme for these substrates. It is known by the name of “specificity constant” [A. Fersht, Enzyme Structure and Mechanism, 1985, W. H. Fréeman and Co., London].

[8] = target: T6, Human guanylate kinase (erythrocytes) (Homo sapiens, UniProt Q16774); conditions: human erythrocyte GMPK, published values a, c, cited from earlier work; for Km: b
T6 construct: enzymatic preparations of guanylate kinase and of nucleoside diphosphate kinase of human erythrocytes; host or cells: human erythrocytes
T6 sequence (Q16774 1-197): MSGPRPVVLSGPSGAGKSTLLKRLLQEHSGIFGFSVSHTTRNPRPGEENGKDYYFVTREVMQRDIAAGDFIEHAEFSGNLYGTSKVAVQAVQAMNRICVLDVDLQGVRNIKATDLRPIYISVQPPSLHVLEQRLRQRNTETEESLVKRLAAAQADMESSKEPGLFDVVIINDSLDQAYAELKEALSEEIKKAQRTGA

[9] = TK 11.7 μg, GMPK 74 μg, yeast NDPK 1.5 μg, 20 min
[10] = TK 11.7 μg, GMPK 74 μg, yeast NDPK 15 μg, 30 min
[11] = TK 11.7 μg, GMPK 74 μg, human NDPK 6.75 μg, 30 min
[12] = TK 11.7 μg, GMPK 74 μg, bovine NDPK 5 μg, 30 min
[13] = TK 10.4 μg, GMPK 7.4 μg, 30 min
[14] = TK 1.3 μg, GMPK 2.5 μg, yeast NDPK 0.75 μg, 60 min
[15] = TK 10.4 μg, GMPK 7.4 μg, yeast NDPK 0.75 μg, 20 min
[16] = TK 10.4 μg, GMPK 7.4 μg, yeast NDPK 1.5 μg, 30 min
[17] = TK 10.4 μg, GMPK 7.4 μg, human NDPK 0.675 μg, 20 min
[18] = TK 10.4 μg, GMPK 7.4 μg, human NDPK 6.75 μg, 30 min
[19] = TK 10.4 μg, GMPK 7.4 μg, bovine NDPK 0.5 μg, 20 min
[20] = TK 10.4 μg, GMPK 7.4 μg, bovine NDPK 5 μg, 30 min

Nc1nc2c(ncn2COCCO)c(=O)[nH]1 [ACV, acyclovir]
% of the products formed, NDP ([1]; TK 11.7 μg, GMPK 74 μg, 20 min): 54% | % of the products formed, NMP ([1]; TK 11.7 μg, GMPK 74 μg, 20 min): 26.0% | % of the products formed, NDP [2, 9]: 60.0% | % of the products formed, NMP [2, 9]: 13.0% | % of the products formed, NTP [2, 9]: 8% | % of the products formed, NDP [2, 10]: 4.6% | % of the products formed, NMP [2, 10]: 1.4% | % of the products formed, NTP [2, 10]: 81% | % of the products formed, NDP [3, 11]: 80.0% | % of the products formed, NMP [3, 11]: 1.8% | % of the products formed, NDP [4, 12]: 82.0% | % of the products formed, NMP [4, 12]: 1.7% | % of the products formed, NTP [4, 12]: 1.3% | GCVDP formed ([5]; Fusion 50 μg, ACV 20 μM): 1220** pmmol | GCVDP formed ([5]; Fusion 50 μg, ACV 50 μM): 2920** pmmol | GCVDP formed ([5]; Fusion 50 μg, ACV 50 μM Incub 1 h): 6740** pmmol | GCVDP formed ([5]; Fusion 200 μg, ACV 100 μM): 18500** pmmol | GCVDP formed (Mixture 2-865:H12/GMPK; Mixture 2-865/H12/GMPK 133/66 μg, ACV 100 μM): 17260** pmmol | GCVDP formed (Mixture 2-865:H12/GMPK; Mixture 2-865: H12/GMPK 33/17 μg, ACV 20 μM): 2325** pmmol | GCVDP formed (Mixture 2-865:H12/GMPK; Mixture 2-865: H12/GMPK 33/17 μg, ACV 50 μM): 3680** pmmol | GCVDP formed (Mixture 2-865:H12/GMPK; Mixture 2-865: H12/GMPK 33/17 μg, ACV 50 μM Incub 1 h): 5890** pmmol

Nc1nc(O)c2ncn(COC(CO)CO)c2n1 [GCV, ganciclovir]
phosphorylation of ganciclovir to ganciclovir diphosphate ([1]; coupling of HSV1-TK and GMPK from S. cerevisiae): 90% | % of the products formed, NMP ([1]; TK 1.3 μg, GMPK 2.5 μg, 60 min): 4.4% | % of the products formed, NDP ([1]; TK 2.6 μg, GMPK 2.5 μg, 30 min): 89.0% | % of the products formed, NMP ([1]; TK 2.6 μg, GMPK 2.5 μg, 30 min): 7.5% | % of the products formed, NDP [1, 13]: 90.8% | % of the products formed, NMP [1, 13]: 5.3% | % of the products formed, NDP [2, 14]: 13.8% | % of the products formed, NMP [2, 14]: 3.2% | % of the products formed, NDP [2, 15]: 12.6% | % of the products formed, NMP [2, 15]: 2.6% | % of the products formed, NDP [2, 16]: 6.9% | % of the products formed, NMP [2, 16]: 0.9% | % of the products formed, NTP [2, 16]: 91.1% | % of the products formed, NDP [3, 17]: 90.3% | % of the products formed, NMP [3, 17]: 6.2% | % of the products formed, NTP [3, 17]: 1.5% | % of the products formed, NDP [3, 18]: 71.1% | % of the products formed, NMP [3, 18]: 2.5% | % of the products formed, NTP [3, 18]: 24% | % of the products formed, NDP [4, 19]: 78.4% | % of the products formed, NMP [4, 19]: 6.5% | % of the products formed, NTP [4, 19]: 12.9% | % of the products formed, NDP [4, 20]: 5.8% | % of the products formed, NMP [4, 20]: 0.6% | % of the products formed, NTP [4, 20]: 92% | GCVDP formed ([5]; Fusion 2 μg, GCV 50 μM): 4900** pmmol | GCVDP formed ([5]; Fusion 2 μg, GCV 100 μM): 8270** pmmol | improvement in phosphorylation by TK-GMPK fusion protein, factor ([5]; compared with coincubation of wild-type TK enzyme and GMPK enzyme): ≤ 1.8 | GCVDP formed [6]: 4660** pmmol | GCVDP formed (Mixture 2-865:H12/GMPK; Mixture 2-865: H12/GMPK 1.66/0.33 μg, GCV 50 μM): 5300** pmmol | tumour response (glioma): regressions of tumour | toxicity (mice): highly toxic

acyclovir monophosphate [ACVMP]
Km [7]: 280 µM | Vmax [7]: 22 µmol/min/mg | Km [8]: 218 µM and 209 to 753 µM and 330 µM | Vmax [8]: 1.9^a μmol/min/mg and 3.6^c μmol/min/mg

ganciclovir monophosphate [GCVMP]
Km [7]: 18 µM | Vmax [7]: 40 µmol/min/mg | phosphorylation rate of yeast guanylate kinase relative to human enzyme ([7]; yeast vs human GMPK): twice as high | Km [8]: 42 to 54 µM and 40 µM | Vmax [8]: 20^a μmol/min/mg
